Assay results published in US10683278B2 (JINAN UNIVERSITY, priority 2015, dated 2020).
“And” between values parts separate entries of the source, which are not always exact repeats. Equal entries are not always repeated.

How the values were obtained:
[1] = molecular target: T1, FLT-3 kinase domain recombinant protein (Homo sapiens, UniProt P36888); assay: Inhibition rate on FLT3 kinase (ELISA); assay type: biochemical; conditions: two values per compound; for inhibition at 0.01 µM / inhibition at 0.1 µM / inhibition at 1 µM: read-out: Inhibition rate (%) against receptor tyrosine kinase FLT-3
T1 construct: 50 μL FLT-3 kinase domain recombinant protein diluted with reaction buffer to initiate the reaction
T1 sequence (P36888 610-943 limits assumed): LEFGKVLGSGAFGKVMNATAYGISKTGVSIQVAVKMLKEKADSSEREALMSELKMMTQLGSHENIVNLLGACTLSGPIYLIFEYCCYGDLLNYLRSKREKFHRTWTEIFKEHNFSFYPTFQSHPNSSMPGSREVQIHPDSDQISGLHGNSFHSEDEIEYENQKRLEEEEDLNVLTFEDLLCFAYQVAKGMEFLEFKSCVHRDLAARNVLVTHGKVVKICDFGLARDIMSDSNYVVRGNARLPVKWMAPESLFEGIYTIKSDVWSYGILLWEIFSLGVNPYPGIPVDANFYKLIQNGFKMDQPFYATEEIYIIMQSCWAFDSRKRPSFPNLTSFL
Method: Conventional enzyme-linked immunosorbent assay (ELISA) method is used, and the specific steps are as follows
12,000 g of compounds were centrifuged for 5 min, DMSO was added to make a 10^−2M stock solution, vortexed uniformly and sonicated for 10 min for standby application, and stored at −40° C. The compounds were diluted from the stock solution with DMSO to 100 times the concentration to be tested (concentration of DMSO in the system being 1%) during the test.
1. The enzyme reaction substrate Poly (Glu, Tyr) 4:1 was diluted to 20 μg/mL with potassium-free PBS (10 mM sodium phosphate buffer, 150 mM NaCl, pH 7.2-7.4), the ELISA plate was coated with same in 125 μL/well, and reacted at 37° C. for 12-16 hours, the liquid in wells was discarded, the plate was washed three times, for 5 minutes each time, with T-PBS (potassium-free PBS with 0.1% Tween-20, 200 μL/well), and the ELISA plate was dried in an oven at 37° C. for 1-2 hours.
2. To each well were added 49 μL of ATP solution diluted with reaction buffer (50 mM HEPES pH 7.4, 50 mM MgCl2, 0.5 mM MnCl2, 0.2 mM Na3VO4, 1 mM DTT), 1 μL of compounds to be tested, and 50 μL FLT-3 kinase domain recombinant protein diluted with reaction buffer to initiate the reaction (two ATP-free control wells are required for each experiment). Subject to a shaker (100 rpm) at 37° C. and reacted for 1 hour. The liquid in wells was discarded, and the plate was washed three times with T-PBS.
(§1) 3. Antibody PY99 diluent (the antibody was diluted in 1:500 with T-PBS which contains 5 mg/mL BSA) was added in 100 μL/well, subjected same to a shaker at 37° C. and reacted for 0.5 hour. The liquid in wells was discarded, and the plate was washed three times with T-PBS.
as §1, with “4. Horseradish peroxidase labeled goat anti-mouse secondary antibody” for “3. Antibody PY99”, “1:2000” for “1:500”, “mg/ml” for “mg/mL”
5. 2 mg/ml of OPD developing solution (diluted with 0.1 M citric acid-sodium citrate buffer which contains 0.03% H2O2 (pH=5.4)) was added in 100 μL/well, and reacted at 25° C. in the dark for 1-10 minutes.
6. 2 M H2SO4 was added in 50 μL/well to stop the reaction, and the reading from the wavelength-adjustable microwell plate ELIASA VERSAmax was performed with a wavelength of 490 nm.

AXL kinase = molecular target: T2, AXL kinase (Homo sapiens, UniProt P30530); assay: IC50 test on AXL kinase (Z′-LYTE FRET kinase activity detection); assay type: biochemical; conditions: for IC50: Z′-LYTE FRET peptide assay, 1 h reaction; for inhibitory activity on AXL kinase: competitive experiment with ATP, in words
T2 construct: purchased Invitrogen PV4803
T2 sequence (P30530 26-894): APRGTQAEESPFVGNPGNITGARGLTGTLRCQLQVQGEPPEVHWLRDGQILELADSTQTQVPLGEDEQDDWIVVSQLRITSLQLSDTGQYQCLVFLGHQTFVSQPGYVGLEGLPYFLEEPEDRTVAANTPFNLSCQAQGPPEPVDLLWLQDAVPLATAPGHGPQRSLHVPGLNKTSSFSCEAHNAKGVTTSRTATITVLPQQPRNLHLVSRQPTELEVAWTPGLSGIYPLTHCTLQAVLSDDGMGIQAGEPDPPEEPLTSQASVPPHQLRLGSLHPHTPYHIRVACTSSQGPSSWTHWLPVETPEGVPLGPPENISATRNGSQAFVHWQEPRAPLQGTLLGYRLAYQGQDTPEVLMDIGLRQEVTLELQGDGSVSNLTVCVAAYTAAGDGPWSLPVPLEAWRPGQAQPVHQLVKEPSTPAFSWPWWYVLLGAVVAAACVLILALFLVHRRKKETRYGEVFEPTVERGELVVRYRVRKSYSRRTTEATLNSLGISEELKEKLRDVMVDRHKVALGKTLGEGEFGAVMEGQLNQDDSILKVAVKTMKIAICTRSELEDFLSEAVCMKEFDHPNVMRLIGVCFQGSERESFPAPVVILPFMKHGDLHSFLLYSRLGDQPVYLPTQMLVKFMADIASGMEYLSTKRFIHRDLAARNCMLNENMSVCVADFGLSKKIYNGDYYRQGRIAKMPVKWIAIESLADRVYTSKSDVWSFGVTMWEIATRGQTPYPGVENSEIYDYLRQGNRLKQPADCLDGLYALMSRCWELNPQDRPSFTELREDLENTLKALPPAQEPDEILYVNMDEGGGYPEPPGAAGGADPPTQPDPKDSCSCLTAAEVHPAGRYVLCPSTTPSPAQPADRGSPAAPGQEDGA
Text: Kinase activity detection: The activity of compounds on kinases was detected by a secondary reaction which used the Z′-LYTE™ technique (a detection using fluorescence, enzyme coupling, and based on differences in susceptibility of phosphorylated and non-phosphorylated polypeptides to proteolytic cleavage), followed the fluorescence resonance energy transfer (FRET) principle, and used Z′-LYTE™ FRET peptide substrates (Invitrogen, Z′-LYTE™ KINASE ASSAY KIT—TYR 2 PEPTIDE, PV3191). AXL kinase (invitrogen, PV4803) was diluted stepwise, FRET peptide was then added, followed by ATP, then by compounds at different concentrations, reacted for 1 h, site-specific proteases were then added to recognize and cleave non-phosphorylated FRET peptides, reacted for 1 h, and […] at 445 nm and 520 nm were detected using excitation wavelength of 400 nm.

| Molecule | Inhibition rate (%) against receptor tyrosine kinase FLT-3 ([1]; compound 10 nM, 0.01 µM) | Inhibition rate (%) against receptor tyrosine kinase FLT-3 ([1]; compound 100 nM, 0.1 µM) | Inhibition rate (%) against receptor tyrosine kinase FLT-3 ([1]; compound 1000 nM, 1 µM) | IC50 (AXL kinase) | inhibitory activity on AXL kinase (AXL kinase) | inhibition at 0.01 µM ([1]; compound 10 nM) | inhibition at 0.1 µM ([1]; compound 100 nM) | inhibition at 1 µM ([1]; compound 1000 nM) |
| --- | --- | --- | --- | --- | --- | --- | --- | --- |
| 6-ethyl-N-(3-fluorophenyl-1H-pyrrolo[2,3-d]pyridin-4-yl)oxy)phenyl)-1,2-dimethyl-4-oxo-1,4-dihydroquinoline-3-carboxamide [TL4800172] | 63.7% and 55.0% | 74.9% and 67.8% | 85.5% and 72.0% | 29.8 nM | strong inhibitory activity | – | – | – |
| CCc1ccc2c(c1)c(=O)c(C(=O)Nc1ccc(Oc3ncnc4[nH]cc(-c5ccc(OC)cc5)c34)c(F)c1)c(C)n2C [GDL5000037, 6-ethyl-N-(3-fluoro-4-(5-(4-methoxyphenyl)-7H-pyrrolo[2,3-d]pyrimidin-4-yloxy)phenyl)-1,2-dimethyl-4-oxo-1,4-dihydroquinoline-3-carboxamide] | 59.8% | 66.5% | 91.6% | 16 nM | strong inhibitory activity | 65.3% | 74.3% | 100% |
| CCc1ccc2c(c1)c(=O)c(C(=O)Nc1ccc(Oc3ncnc4[nH]cc(-c5cnn(C)c5)c34)c(F)c1)c(C)n2C [GDL5000038, 6-ethyl-N-(3-fluoro-4-(5-(1-methyl-1H-pyrazol-4-yl)-7H-pyrrolo[2,3-d]pyrimidin-4-yloxy)phenyl)-1,2-dimethyl-4-oxo-1,4-dihydroquinoline-3-carboxamide] | 55.0% | 73.0% | 95.9% | 34 nM | – | 58.3% | 80.7% | 98.2% |
| CCc1ccc2c(c1)c(=O)c(C(=O)Nc1ccc(Oc3ccnc(N)c3Cl)c(F)c1)c(C)n2C [GDL5000059, N-(4-((2-amino-3-chloropyridin-4-yl)oxy)-3-fluorophenyl)-6-ethyl-1,2-dimethyl-4-oxo-1,4-dihydroquinoline-3-carboxamide] | 52.7% | 63.8% | 82.3% | 72 nM | – | 55.9% | 67.8% | 88.7% |
| COc1cc2ncnc(Oc3ccc(NC(=O)c4cn(C5CC5)c5cc(N6CCNCC6)c(F)cc5c4=O)cc3F)c2cc1OC [GDL5000110, 1-cyclopropyl-N-(4-(6,7-dimethoxyquinazolin-4-yloxy)-3-fluorophenyl)-6-fluoro-4-oxo-7-(piperazin-1-yl)-1,4-dihydroquinoline-3-carboxamide] | 49.2% | 51.8% | 81.2% | 20 nM | – | 48.5% | 50.3% | 83.5% |
| Cc1c(C(=O)Nc2ccc(Oc3ncnc4[nH]cc(-c5ccccc5)c34)c(F)c2)c(=O)c2cc(F)ccc2n1C [TL50087, 6-fluoro-N-(3-fluoro-4-(5-phenyl-7H-pyrrolo[2,3-d]pyrimidin-4-yloxy)phenyl)-1,2-dimethyl-4-oxo-1,4-hydroquinoline-3-carboxamide] | 41.8% | 45.8% | 67.2% | > 10000 nM | – | 46.1% | 47.4% | 84% |
| Cc1c(C(=O)Nc2ccc(Oc3ncnc4[nH]cc(-c5ccccc5)c34)c(F)c2)c(=O)c2cc(C(F)(F)F)ccc2n1C [TL50121, N-(3-fluoro-4-((5-phenyl-7H-pyrrolo[2,3-d]pyrimidin-4-yl)oxy)phenyl)-1,2-dimethyl-4-oxo-6-(trifluoromethyl)-1,4-dihydroquinoline-3-carboxamide] | 61.6% | 63.3% | 77.6% | 153 nM | – | 58.2% | 66.7% | 84.4% |
| Cc1c(C(=O)Nc2ccc(Oc3ncnc4[nH]cc(-c5ccccc5)c34)c(F)c2)c(=O)c2cc(C(C)C)ccc2n1C [TL50172, N-(3-fluoro-4-(5-phenyl-7H-pyrrolo[2,3-d]pyrimidin-4-yloxy)phenyl)-6-isopropyl-1,2-dimethyl-4-oxo-1,4-dihydroquinoline-3-carboxamide] | 54.2% | 72.9% | 84.6% | 26 nM | – | 59.4% | 62.6% | 81.8% |
| CCc1ccc2c(c1)c(=O)c(C(=O)Nc1ccc(Oc3ncnc4cc(OCCCN(C)C)c(OC)cc34)c(F)c1)c(C)n2C [TL4830076, N-(4-(7-(3-(dimethylamino)propoxy)-6-methoxyquinazolin-4-yloxy)-3-fluorophenyl)-6-ethyl-1,2-dimethyl-4-oxo-1,4-dihydroquinoline-3-carboxamide] | – | – | – | 1.1 nM | – | – | – | – |
